Results taken from patent publication US20080269237A1, “CARBAMIC ACID COMPOUNDS COMPRISING A PIPERAZINE LINKAGE AS HDAC INHIBITORS” (TOPOTARGET UK LIMITED, priority 2002, published 2008).
Read-outs that look alike come from different tables or passages of the source.

Key:
[1] = tested on: HDAC (HeLa cell extract); assay: Primary assay: deacetylase activity, HeLa cell extract as source of HDAC; assay type: biochemical, human; conditions: for IC50: read-out: HDAC Inhibition (IC50 unless otherwise specified) HeLa; for HDAC Inhibition HeLa, % @ 500 nM: 500 nM compound; for HDAC Inhibition HeLa, % @ 100 nM: 100 nM compound
Protocol: Decreased activity indicates increased inhibition by the test compound.
Alternatively, the activity of the compounds as HDAC inhibitors was determined using a commercially available fluorescent assay kit: (Fluor de Lys™, BioMol Research Labs, Inc., Plymouth Meeting, USA).
Extensive comparative studies have shown that Primary Assay (1) and Primary Assay (2), discussed above, yield equivalent results. Primary Assay results reported herein are (a) exclusively from (1); (b) exclusively from (2); or (c) from both (1) and (2).
The HeLa cell extract was made from HeLa cells (ATCC Ref. No. CCL-2) by freeze-thawing three times in 60 mM TrisCl pH 8.0, 450 mM NaCl, 30% glycerol. Two cell volumes of extraction buffer were used, and particulate material was centrifuged out (20800 g, 4° C., 10 min). The supernatant extract having deacetylase activity was aliquoted and frozen for storage.
(§1) % activity={(S^C−B)/(S^o−B)}×100

[2] = tested on: K11 (HPV E7 transformed human keratinocyte line); assay: Secondary assay: cell proliferation inhibition WST-1, K11; assay type: cell-based; conditions: K11, 48 h, read-out: Cell Proliferation Inhibition WST-1 (IC50 unless otherwise specified) K11
Description: (§2) Compounds with HDAC inhibition activity, as determined using the primary assay, were subsequently evaluated using secondary cell-based assays. The following cell lines were used:
(§3) HeLa—Human cervical adenocarcinoma cell line (ATCC ref. No. CCL-2). K11—HPV E7 transformed human keratinocyte line provided by Pidder Jansen-Duerr, Institut für Biomedizinische Altemsforschung, Innsbruck, Austria. NHEK-Ad—Primary human adult keratinocyte line (Cambrex Corp., East Rutherford, N.J., USA).
(§4) Cells were plated in 96-well plates at 3-10×10^3 cells/well in 100 μL of culture medium. The following day, different concentrations of candidate compounds were added and the cells incubated at 37° C. for 48 h. Subsequently, 10 μL/well of WST-1 reagent was added and the cells reincubated for 1 hour. After the incubation time, absorbance was measured.
(§5) WST-1 is a tetrazolium salt which is cleaved to formazan dye by cellular enzymes. An expansion in the number of viable cells results in an increase in the overall activity of mitochondrial dehydrogenases in the sample. This augmentation in the enzyme activity leads to an increase in the amount of formazan dye formed, which directly correlates to the number of metabolically active cells in the culture. The formazan dye produced is quantified by a scanning multiwell spectrophotometer by measuring the absorbance of the dye solution at 450 nm wavelength (reference wavelength 690 nm).
(§6) Percent activity (% activity) in reducing the number of viable cells was calculated for each test compound as:
as §1
(§7) IC50 values were calculated using the software package Prism 3.0 (GraphPad Software Inc., San Diego, Calif.), setting top value at 100 and bottom value at 0.

[3] = tested on: NHEK-Ad (primary human adult keratinocyte line); assay: Secondary assay: cell proliferation inhibition WST-1, NHEK-Ad; assay type: cell-based; conditions: NHEK-AD; 48 h; read-out: Cell Proliferation Inhibition WST-1 (IC50 unless otherwise specified) NHEK-AD
Description: as §2, §3, §4
WST-1 is a tetrazolium salt which is cleaved to formazan dye by cellular enzymes. […] The formazan dye produced is quantified by a scanning multiwell spectrophotometer by measuring the absorbance of the dye solution at 450 nm wavelength (reference wavelength 690 nm).
Percent activity (% activity) in reducing the number of viable cells was calculated for each test compound as: […]
as §7

[4] = tested on: JURKAT (human T-cell line); assay: Secondary assay: cell proliferation inhibition WST-1, Jurkat; assay type: cell-based; conditions: 48 h, read-out: Cell Proliferation Inhibition WST-1 (IC50 unless otherwise specified) Jurkat
[5] = tested on: HeLa cells; assay: Secondary assay: cell proliferation inhibition WST-1, HeLa; assay type: cell-based; conditions: Homo sapiens, 48 h, read-out: Cell Proliferation Inhibition WST-1 (IC50 unless otherwise specified) HeLa
Description: as §2, §3, §4, §5, §6, §1, §7

## O=C(CCCCCC(=O)N1CCN(c2cccc(Cl)c2)CC1)NO [PX118794, 7-[4-(3-Chloro-phenyl)-piperazin-1-yl]-7-oxo heptanoic acid hydroxyamide]
[1]
  IC50: 74 nM
other
  melting point: 120 to 122 °C

## COc1cccc(N2CCN(C(=O)CCCCCCC(=O)NO)CC2)c1 [PX118847, 8-[4-(3-Methoxyphenyl)-piperazin-1-yl]-8-oxo octanoic acid hydroxyamide]
[1]
  IC50: 31 nM
other
  melting point: 122 to 122.5 °C

## COc1ccccc1N1CCN(S(=O)(=O)c2cccc(/C=C/C(=O)NO)c2)CC1 [PX118810, (E)-N-Hydroxy-3-{3-[(4-(2-methoxyphenyl)-1-piperazinyl)sulfonyl]phenyl}-2-propenamide]
[1]
  IC50: 46 nM
other
  melting point: 190 °C

## O=C(CCCCCC(=O)N1CCN(c2ccccc2)CC1)NO [PX117404, 7-Oxo-7-(4-phenyl-piperazin-1-yl)-heptanoic acid hydroxyamide]
[1]
  HDAC Inhibition HeLa, % @ 500 nM: 35% @ 500 nM
other
  melting point: 107 to 109 °C

## Nc1ccccc1NC(=O)c1ccc(CNC(=O)OCc2cccnc2)cc1 [MS-275, reference compound]
[2]
  IC50: 9160 nM
[3]
  IC50: 3100 nM
[4]
  IC50: 365 nM

## O=C(/C=C/c1cccc(S(=O)(=O)N2CCN(c3ccccn3)CC2)c1)NO [PX118807, (E)-N-Hydroxy-3-{3-[(4-(2-pyridinyl)-1-piperazinyl)sulfonyl]phenyl}-2-propenamide]
[1]
  HDAC Inhibition HeLa, % @ 100 nM: 60% @ 100 nM

## COc1ccc(N2CCN(C(=O)CCCCCCC(=O)NO)CC2)cc1 [PX118846, 8-[4-(4-Methoxyphenyl)-piperazin-1-yl]-8-oxo octanoic acid hydroxyamide]
[1]
  IC50: 3.4 nM
other
  melting point: 149 to 150 °C

## O=C(CCCCCCC(=O)N1CCN(c2ccccc2Cl)CC1)NO [PX118791, 8-[4-(2-Chloro-phenyl)-piperazin-1-yl]-8-oxo octanoic acid hydroxyamide]
[1]
  IC50: 36 nM
other
  melting point: 131 to 132 °C

## O=C(CCCCCCC(=O)N1CCN(c2cccc(Cl)c2)CC1)NO [PX118792, 8-[4-(3-Chloro-phenyl)-piperazin-1-yl]-8-oxo octanoic acid hydroxyamide]
[1]
  IC50: 34 nM
other
  melting point: 122 to 124 °C

## N#Cc1ccc(C(=O)N2CCN(C(=O)CCCCCCC(=O)NO)CC2)cc1 [PX118844, 8-[4-(4-Cyanobenzoyl)-piperazin-1-yl]-8-oxo octanoic acid hydroxyamide]
[1]
  IC50: 286 nM
other
  melting point: 150 to 150.5 °C

## O=C(CCCCCCC(=O)N1CCN(C(=O)c2ccc3ccccc3c2)CC1)NO [PX118830, 8-[4-(Naphthalene-2-carbonyl)-piperazin-1-yl]-8-oxo octanoic acid hydroxyamide]
[1]
  IC50: 133 nM
other
  melting point: 133.5 to 134.5 °C

## oxamflatin [reference compound]
[4]
  IC50: 170 nM

## CN(C)c1ccc(C(=O)N2CCN(C(=O)CCCCCCC(=O)NO)CC2)cc1 [PX118832]
[1]
  IC50: 212 nM
other
  melting point: 90 to 92 °C

## O=C(CCCCCC(=O)N1CCN(c2ccccc2Cl)CC1)NO [PX118793, 7-[4-(2-Chloro-phenyl)-piperazin-1-yl]-7-oxo heptanoic acid hydroxyamide]
[1]
  IC50: 188 nM
other
  melting point: 128 to 130 °C

## O=C(CCCCCCC(=O)N1CCN(C(=O)c2ccccc2)CC1)NO [PX118831, 8-(4-Benzoyl-piperazin-1-yl)-8-oxo octanoic acid hydroxyamide]
[1]
  IC50: 194 nM
other
  melting point: 100 to 101 °C

## O=C(/C=C/c1cccc(S(=O)(=O)N2CCN(c3ccccc3Cl)CC2)c1)NO [PX118811, (E)-N-Hydroxy-3-{3-[(4-(2-chlorophenyl)-1-piperazinyl)sulfonyl]phenyl}-2-propenamide]
[1]
  IC50: 42 nM
other
  melting point: 183 °C

## O=C(/C=C/c1cccc(S(=O)(=O)N2CCN(c3cccc(Cl)c3)CC2)c1)NO [PX118812, (E)-N-Hydroxy-3-{3-[(4-(3-chlorophenyl)-1-piperazinyl)sulfonyl]phenyl}-2-propenamide]
[1]
  IC50: 26 nM
other
  melting point: 201 °C

## COc1ccccc1N1CCN(C(=O)CCCCCCC(=O)NO)CC1 [PX117768, 8-[4-(2-Methoxy-phenyl)-piperazin-1-yl]-8-oxo-octanoic acid hydroxyamide]
[1]
  IC50: 175 nM
[5]
  IC50: 3300 nM
[2]; Homo sapiens, Keratinocyte
  IC50: 8670 nM
[4]; Homo sapiens
  IC50: 1040 nM
other
  melting point: 135 to 137 °C

## O=C(/C=C/c1cccc(S(=O)(=O)N2CCN(c3ccccc3)CC2)c1)NO [PX118490, (E)-N-Hydroxy-3-{3-[(4-phenyl-1-piperazinyl)sulfonyl]phenyl}-2-propenamide]
[1]
  HDAC Inhibition HeLa, % @ 100 nM: 59% @ 100 nM
[5]
  IC50: 1000 nM
[2]; Homo sapiens, Keratinocyte
  IC50: 2490 nM
[4]; Homo sapiens
  IC50: 460 nM

## O=C(CCCCCC(=O)N1CCN(C(c2ccccc2)c2ccccc2)CC1)NO [PX117403, 7-(4-Benzhydryl-piperazin-1-yl)-7-oxo-heptanoic acid hydroxyamide]
[1]
  HDAC Inhibition HeLa, % @ 500 nM: 28% @ 500 nM
other
  melting point: 157 to 159 °C

## O=C(CCCCCCC(=O)N1CCN(c2ccc([N+](=O)[O-])cc2)CC1)NO [PX118849, N-Hydroxy-8-[4-(4-nitrophenyl)-1-piperazinyl]-8-oxooctanamide]
[1]
  IC50: 26 nM
other
  melting point: 125 to 127 °C

## O=C(CCCCCCC(=O)N1CCN(C(c2ccccc2)c2ccccc2)CC1)NO [PX117764]
[1]
  IC50: 785 nM
[5]
  IC50: 29200 nM
[2]; Homo sapiens, Keratinocyte
  IC50: 9450 nM
[4]; Homo sapiens
  IC50: 2680 nM
other
  melting point: 126 to 129 °C

## CN(C)c1ccc(CC(=O)N2CCN(C(=O)CCCCCCC(=O)NO)CC2)cc1 [PX118848, 8-(4-{2-[4-(Dimethylamino)phenyl]acetyl}-1-piperazinyl)-N-hydroxy-8-oxooctanamide]
[1]
  HDAC Inhibition HeLa, % @ 100 nM: 44% @ 100 nM
other
  melting point: 77 to 79 °C

## O=C(CCCCCCC(=O)N1CCN(c2ncccn2)CC1)NO [PX118850, N-Hydroxy-8-oxo-8-[4-(2-pyrimidinyl)-1-piperazinyl]octanamide]
[1]
  IC50: 70 nM
other
  melting point: 132 to 133.5 °C
